From PubChem BioAssay (NCI)
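GI50: concentration for 50% inhibition of growth. TGI marks complete inhibition of growth.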

Key:
Assay in all cases: DTP human tumour cell line panel, 384-well format
786-0 renal = test system: 786-0 renal
A498 renal = test system: A498 renal
A549 NSCLC = test system: A549 NSCLC
ACHN renal = test system: ACHN renal
CAKI-1 renal = test system: CAKI-1 renal
CCRF-CEM leukemia = test system: CCRF-CEM leukemia
COLO 205 colon = test system: COLO 205 colon
DU-145 prostate = test system: DU-145 prostate
EKVX NSCLC = test system: EKVX NSCLC
HCT-15 colon = test system: HCT-15 colon
HL-60(TB) leukemia = test system: HL-60(TB) leukemia
HOP-62 NSCLC = test system: HOP-62 NSCLC
HOP-92 NSCLC = test system: HOP-92 NSCLC
HS 578T breast = test system: HS 578T breast
HT29 colon = test system: HT29 colon
IGROV1 ovarian = test system: IGROV1 ovarian
K-562 leukemia = test system: K-562 leukemia
MCF7 breast = test system: MCF7 breast
MDA-MB-231 breast = test system: MDA-MB-231 breast
MDA-MB-435 melanoma = test system: MDA-MB-435 melanoma
MDA-MB-468 breast = test system: MDA-MB-468 breast
NCI-H226 lung = test system: NCI-H226 lung
NCI-H322M lung = test system: NCI-H322M lung
NCI-H460 NSCLC = test system: NCI-H460 NSCLC
NCI-H522 lung = test system: NCI-H522 lung
NCI/ADR-RES ovarian = test system: NCI/ADR-RES ovarian
OVCAR-3 ovarian = test system: OVCAR-3 ovarian
OVCAR-4 ovarian = test system: OVCAR-4 ovarian
OVCAR-5 ovarian = test system: OVCAR-5 ovarian
OVCAR-8 ovarian = test system: OVCAR-8 ovarian
PC-3 prostate = test system: PC-3 prostate
RPMI-8226 leukemia = test system: RPMI-8226 leukemia
RXF 393 renal = test system: RXF 393 renal
SF-268 CNS = test system: SF-268 CNS
SF-295 CNS = test system: SF-295 CNS
SF-539 CNS = test system: SF-539 CNS
SK-MEL-2 melanoma = test system: SK-MEL-2 melanoma
SK-MEL-28 melanoma = test system: SK-MEL-28 melanoma
SK-MEL-5 melanoma = test system: SK-MEL-5 melanoma
SK-OV-3 ovarian = test system: SK-OV-3 ovarian
SNB-19 CNS = test system: SNB-19 CNS
SNB-75 CNS = test system: SNB-75 CNS
SR leukemia = test system: SR leukemia
SW-620 colon = test system: SW-620 colon
UACC-257 melanoma = test system: UACC-257 melanoma
UACC-62 melanoma = test system: UACC-62 melanoma
UO-31 renal = test system: UO-31 renal

## C[C@@H]1CN(C(=O)c2ccc(NC(=O)c3cc(O[C@H](C)c4c(Cl)ccc(F)c4Cl)c(N)nn3)cc2)C[C@H](C)N1
786-0 renal
  GI50: 1860 nM
  TGI: 3.5 µM
A498 renal
  GI50: 2040 nM
  TGI: 3.88 µM
A549 NSCLC
  GI50: 1450 nM
  TGI: 5 µM
ACHN renal
  GI50: 3.05 µM
  TGI: 11.1 µM
CAKI-1 renal
  GI50: 2160 nM
  TGI: 5.69 µM
CCRF-CEM leukemia
  GI50: 395 nM
  TGI: 1010 nM
COLO 205 colon
  GI50: 1330 nM
  TGI: 3.94 µM
DU-145 prostate
  GI50: 3.89 µM
  TGI: 14.5 µM
EKVX NSCLC
  GI50: 1520 nM
  TGI: 5.93 µM
HCT-15 colon
  GI50: 2460 nM
  TGI: 6.88 µM
HL-60(TB) leukemia
  GI50: 1250 nM
  TGI: 2510 nM
HOP-62 NSCLC
  GI50: 2420 nM
  TGI: 7.03 µM
HOP-92 NSCLC
  GI50: 660 nM
  TGI: 2420 nM
HS 578T breast
  GI50: 1800 nM
  TGI: 3.44 µM
HT29 colon
  GI50: 1220 nM
  TGI: 2590 nM
IGROV1 ovarian
  GI50: 2360 nM
  TGI: 10.2 µM
K-562 leukemia
  GI50: 152 nM
  TGI: 319 nM
MCF7 breast
  GI50: 845 nM
  TGI: 4.77 µM
MDA-MB-231 breast
  GI50: 1740 nM
  TGI: 5.52 µM
MDA-MB-435 melanoma
  GI50: 1610 nM
  TGI: 6.93 µM
MDA-MB-468 breast
  GI50: 1900 nM
  TGI: 3.7 µM
NCI-H226 lung
  GI50: 2120 nM
  TGI: 8.92 µM
NCI-H322M lung
  GI50: 5.08 µM
  TGI: 16.1 µM
NCI-H460 NSCLC
  GI50: 1000 nM
  TGI: 3.73 µM
NCI-H522 lung
  GI50: 1990 nM
  TGI: 7.16 µM
NCI/ADR-RES ovarian
  GI50: 14.8 µM
  TGI: 28.2 µM
OVCAR-3 ovarian
  GI50: 2750 nM
  TGI: 7.2 µM
OVCAR-4 ovarian
  GI50: 4.1 µM
  TGI: 10.2 µM
OVCAR-5 ovarian
  GI50: 1540 nM
  TGI: 4.7 µM
OVCAR-8 ovarian
  GI50: 3.44 µM
  TGI: 10.3 µM
PC-3 prostate
  GI50: 2580 nM
  TGI: 7.16 µM
RPMI-8226 leukemia
  GI50: 943 nM
  TGI: 2490 nM
RXF 393 renal
  GI50: 1740 nM
  TGI: 3.27 µM
SF-268 CNS
  GI50: 1310 nM
  TGI: 3.77 µM
SF-295 CNS
  GI50: 1720 nM
  TGI: 5.81 µM
SF-539 CNS
  GI50: 2020 nM
  TGI: 3.99 µM
SK-MEL-2 melanoma
  GI50: 1770 nM
  TGI: 4.27 µM
SK-MEL-28 melanoma
  GI50: 2820 nM
  TGI: 7.32 µM
SK-MEL-5 melanoma
  GI50: 1530 nM
  TGI: 3.48 µM
SK-OV-3 ovarian
  GI50: 5.26 µM
  TGI: 16.2 µM
SNB-19 CNS
  GI50: 4.02 µM
  TGI: 13.5 µM
SNB-75 CNS
  GI50: 2210 nM
  TGI: 4.14 µM
SR leukemia
  TGI: 10.9 nM
SW-620 colon
  GI50: 1690 nM
  TGI: 3.48 µM
UACC-257 melanoma
  GI50: 1690 nM
  TGI: 3.07 µM
UACC-62 melanoma
  GI50: 1340 nM
  TGI: 2890 nM
UO-31 renal
  GI50: 3.53 µM
  TGI: 12.4 µM
